Measurements published in ChEMBL document CHEMBL4219198, “Peptidomimetic nitrile inhibitors of malarial protease falcipain-2 with high selectivity against human cathepsins” (Bioorg Med Chem Lett, 2018).

Tests used:
[1] = target: T1, Falcipain 2 (Plasmodium falciparum, UniProt Q9N6S8); test: Inhibition of Plasmodium falciparum falcipain-2
T1 sequence (Q9N6S8 whole entry): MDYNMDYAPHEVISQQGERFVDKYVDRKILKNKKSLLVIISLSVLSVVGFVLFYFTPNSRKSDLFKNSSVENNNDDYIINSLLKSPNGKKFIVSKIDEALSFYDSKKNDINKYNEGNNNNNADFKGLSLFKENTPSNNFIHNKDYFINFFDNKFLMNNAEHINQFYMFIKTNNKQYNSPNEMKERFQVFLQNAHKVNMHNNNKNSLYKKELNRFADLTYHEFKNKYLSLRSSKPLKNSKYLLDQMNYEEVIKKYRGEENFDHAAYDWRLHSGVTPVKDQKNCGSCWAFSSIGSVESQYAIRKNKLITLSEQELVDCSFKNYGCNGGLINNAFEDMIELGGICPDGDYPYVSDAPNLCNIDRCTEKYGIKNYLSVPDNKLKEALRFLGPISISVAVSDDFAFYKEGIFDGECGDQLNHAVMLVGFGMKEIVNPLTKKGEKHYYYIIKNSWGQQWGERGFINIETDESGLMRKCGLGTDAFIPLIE

[2] = Selectivity ratio of IC50 for human cathepsin B to IC50 for Plasmodium falciparum falcipain-2
[3] = Selectivity ratio of IC50 for human cathepsin K to IC50 for Plasmodium falciparum falcipain-2
[4] = Selectivity ratio of IC50 for human cathepsin L to IC50 for Plasmodium falciparum falcipain-2
[5] = Selectivity ratio of IC50 for human cathepsin S to IC50 for Plasmodium falciparum falcipain-2
[6] = tested on: Plasmodium falciparum; test: Antimalarial activity against Plasmodium falciparum infected in human erythrocytes; assay type: functional, organism-based
[7] = Cytotoxicity against human HeLa cells assessed as reduction in cell viability; assay type: cell-based
[8] = Cytotoxicity against HUVEC assessed as reduction in cell viability; assay type: cell-based; settings: human, HUVEC cells
[9] = target: Cathepsin B (Homo sapiens, UniProt P07858); test: Inhibition of human cathepsin B
[10] = target: T2, Cathepsin K (Homo sapiens, UniProt P43235); test: Inhibition of human cathepsin K
T2 sequence (P43235 whole entry): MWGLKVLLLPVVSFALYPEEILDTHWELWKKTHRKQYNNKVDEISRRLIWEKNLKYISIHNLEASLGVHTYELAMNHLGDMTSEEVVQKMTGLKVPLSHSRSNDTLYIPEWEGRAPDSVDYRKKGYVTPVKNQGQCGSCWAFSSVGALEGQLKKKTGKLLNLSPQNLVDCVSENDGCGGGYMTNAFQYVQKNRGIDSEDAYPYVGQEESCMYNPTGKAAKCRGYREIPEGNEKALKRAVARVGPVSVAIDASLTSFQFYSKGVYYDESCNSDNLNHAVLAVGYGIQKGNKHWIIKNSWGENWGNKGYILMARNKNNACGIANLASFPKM

[11] = target: Procathepsin L (Homo sapiens, UniProt P07711); test: Inhibition of human cathepsin L
[12] = target: Cathepsin S (Homo sapiens, UniProt P25774); test: Inhibition of human cathepsin S
[13] = target: T3, Cysteine protease falcipain-3 (Plasmodium falciparum, UniProt Q9NAW4); test: Inhibition of Plasmodium falciparum falcipain-3
T3 sequence (Q9NAW4 whole entry): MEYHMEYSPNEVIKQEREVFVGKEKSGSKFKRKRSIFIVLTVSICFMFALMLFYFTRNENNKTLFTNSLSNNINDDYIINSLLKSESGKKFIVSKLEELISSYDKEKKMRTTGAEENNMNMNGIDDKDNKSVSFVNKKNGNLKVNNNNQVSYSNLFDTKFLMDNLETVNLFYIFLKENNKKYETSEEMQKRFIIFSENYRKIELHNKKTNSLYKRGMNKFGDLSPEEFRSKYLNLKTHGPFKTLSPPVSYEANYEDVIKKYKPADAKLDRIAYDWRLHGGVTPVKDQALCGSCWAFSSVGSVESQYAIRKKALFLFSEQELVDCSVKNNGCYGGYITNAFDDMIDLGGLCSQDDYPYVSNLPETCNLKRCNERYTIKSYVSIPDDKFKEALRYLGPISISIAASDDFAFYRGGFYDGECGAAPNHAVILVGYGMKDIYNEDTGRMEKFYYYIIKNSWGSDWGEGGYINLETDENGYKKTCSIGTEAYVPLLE

Chain of Cathepsin S (P25774 whole entry): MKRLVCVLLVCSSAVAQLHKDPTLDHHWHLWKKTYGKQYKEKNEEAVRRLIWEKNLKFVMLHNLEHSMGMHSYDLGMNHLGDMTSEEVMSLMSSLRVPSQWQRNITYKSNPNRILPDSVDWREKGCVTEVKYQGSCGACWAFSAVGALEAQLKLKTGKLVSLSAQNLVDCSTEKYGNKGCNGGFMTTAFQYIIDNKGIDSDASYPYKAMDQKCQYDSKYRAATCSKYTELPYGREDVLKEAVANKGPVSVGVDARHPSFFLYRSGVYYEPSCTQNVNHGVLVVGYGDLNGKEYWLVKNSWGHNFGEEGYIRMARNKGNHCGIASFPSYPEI
Chain of Procathepsin L (P07711 whole entry): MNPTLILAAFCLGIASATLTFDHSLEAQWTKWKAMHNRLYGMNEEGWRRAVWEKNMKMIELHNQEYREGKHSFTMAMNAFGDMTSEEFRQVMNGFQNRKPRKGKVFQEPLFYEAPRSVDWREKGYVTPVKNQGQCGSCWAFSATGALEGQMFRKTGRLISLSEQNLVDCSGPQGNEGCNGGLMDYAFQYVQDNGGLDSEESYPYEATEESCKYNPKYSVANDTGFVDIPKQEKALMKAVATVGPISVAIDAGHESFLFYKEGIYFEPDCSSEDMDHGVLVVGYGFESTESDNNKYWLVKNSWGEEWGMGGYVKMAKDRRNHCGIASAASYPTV

Structure (SMILES) | IC50 [1] [nM] | Ratio IC50 [2] | Ratio IC50 [3] | Ratio IC50 [4] | Ratio IC50 [5] | EC50 [6] [nM] | CC50 [7] [nM] | CC50 [8] [nM] | IC50 [9] [nM] | IC50 [10] [nM] | IC50 [11] [nM] | IC50 [12] [nM] | IC50 [13] [nM]
N#CC1(NC(=O)[C@H](Cc2cccnc2)NC(=O)c2cccc(-c3ncc[nH]3)c2)CC1 | 2.7 | > 1850 | 718 | 128 | 76 | 2000 | > 16000 | > 16000 | – | – | – | – | –
CN1CCN(Cc2ccc(C(=O)N[C@@H](Cc3cccnc3)C(=O)NC3(C#N)CC3)s2)CC1 | 25.9 | > 192 | 34 | 14 | 32 | – | – | – | – | – | – | – | –
N#CC1(NC(=O)[C@H](Cc2ccccn2)NC(=O)c2ccc(-c3ccccc3)cc2)CC1 | > 5000 | – | – | – | – | – | – | – | > 5000 | 3830 | > 5000 | > 5000 | –
Cn1nc(C(F)(F)F)cc1-c1ccc(C(=O)N[C@@H](Cc2cccnc2)C(=O)NC2(C#N)CC2)s1 | 2.2 | > 2270 | 212 | 1240 | 30 | – | – | – | – | – | – | – | –
N#CC1(NC(=O)[C@H](Cc2cccnc2)NC(=O)c2ccc(-c3ccccc3)cc2)CC1 | 23.1 | 119 | 9 | 69 | 11 | > 25000 | – | – | 2750 | 202 | 1590 | 382 | 117
CN1CCN(C(=O)C[C@H](NC(=O)c2ccc(-c3ccccc3)cc2)C(=O)NC2(C#N)CC2)CC1 | > 5000 | – | – | – | – | – | – | – | > 5000 | > 5000 | > 5000 | > 5000 | –
CC(C)CN(NC(=O)c1ccc(CN2CCN(C)CC2)cc1)c1nc(C#N)ncc1Br | 0.6 | – | – | – | – | 61 | – | – | 987 | 0.2 | 0.7 | 30 | –
N#CC1(NC(=O)[C@H](Cc2ccccc2)NC(=O)c2ccc(-c3ccccc3)cc2)CC1 | 667 | – | – | – | – | – | – | – | 2210 | 213 | 635 | 283 | –
N#CC1(NC(=O)[C@H](Cc2c[nH]c3ccc(O)cc23)NC(=O)c2ccc(-c3ccccc3)cc2)CC1 | 192 | – | – | – | – | – | – | – | 1100 | 1870 | 494 | 253 | –
CN1CCN(Cc2ccc(-c3cncc(C(=O)N[C@@H](Cc4cccnc4)C(=O)NC4(C#N)CC4)c3)cc2)CC1 | 2.4 | > 2080 | > 2080 | 45 | 552 | 2000 | > 16000 | > 16000 | – | – | – | – | –
CN1CCCC(c2cccc(C(=O)N[C@@H](Cc3cccnc3)C(=O)NC3(C#N)CC3)c2)C1 (some centres not stated) | 8.6 | > 581 | 170 | 61 | 202 | – | – | – | – | – | – | – | –
CN(C)c1ccc(C[C@H](NC(=O)c2ccc(-c3ccccc3)cc2)C(=O)NC2(C#N)CC2)cc1 | > 5000 | – | – | – | – | – | – | – | 715 | > 5000 | > 5000 | – | –
N#CC1(NC(=O)[C@H](Cc2ccncc2)NC(=O)c2ccc(-c3ccccc3)cc2)CC1 | > 5000 | – | – | – | – | – | – | – | > 5000 | 867 | 755 | 710 | –
N#CC1(NC(=O)[C@@H](Cc2cccnc2)NC(=O)c2ccc(-c3ccccc3)cc2)CC1 | > 5000 | – | – | – | – | – | – | – | > 50000 | > 5000 | > 5000 | > 5000 | –
CS(=O)(=O)c1cccc(-c2cccc(C(=O)N[C@@H](Cc3cccnc3)C(=O)NC3(C#N)CC3)c2)c1 | 8.2 | > 610 | 180 | 302 | 26 | – | – | – | – | – | – | – | –
